# Experiments:
# [1] = test system: isolated guinea-pig heart; assay: Relative coronary blood-flow change in isolated guinea-pig heart (Langendorff)
# Procedure: (4) Relative coronary blood-flow change in an isolated guinea-pig heart.
# The tests were carried out according to the method of Langendorff (Pflugers Archiv. 61 (1895), page 219).
# In Table 5, the change in coronary blood flow after administration of various quantities of the test substance is compared with that after administration of the known compounds heptaminol and Aescin sodium salt.
# [2] = Toxicity in the mouse (Litchfield and Wilcoxon); assay type: in vivo; settings: mouse, in vivo
# Procedure: (6) Toxicity in the mouse
# Toxicity was determined according to Litchfield and Wilcoxon (J. Pharmacol. exp. Ther. 97 (1949), page 399) in the mouse. In comparison, the values with the known substance aescin sodium salt were determined. Comparative tests with 0.1% solution, of venous and optical compatibility on the rabbit yielded similar results.
# perfused rabbit ear = assay: Blood-flow change in perfused isolated rabbit ear, vaso-dilator activity (Ringer-Norfenefrin solution)
# Procedure: (3) Blood-flow change in an isolated rabbit ear
# The tests were carried out according to Krakow-Pissemski (Pflugers Archiv 151 (1913), page 583 and 156 (1914), page 426). In Table 5a the estimated values of the vaso-constrictor activity in Ringer solutions of varying concentrations are given and in Table 5b values for vasodilatory activity in Ringer-Norfenefrin solutions of varying concentrations are given. As a comparison, the values obtained with the known preparation aescin sodium are given.
# [3] = test system: carrageenin oedema in the rat paw; assay: Suppression of carrageenin oedema in the rat paw (Siegmund); assay type: in vivo; settings: 3 h p.a.
# Procedure: (7) Suppression of carrageenin oedema in the rat paw
# The inflammation-reducing and anti-oedematous effects on carrageenin and serotonin oedemas in the rat paw were studied according to Siegmund et al (Proc. Soc. exp. Biol. Med. 95 (1957), page 729). The values are given as percentages, based on the values obtained in control tests using a dummy procedure. In this way, the antiphlogistic activity of the substances according to the invention was tested.
# [4] = test system: writhing movements in the mouse; assay: Writhing test (Winter); assay type: in vivo
# Description: The analgesic activity of the compounds according to the invention were studied by the method of Winter et al (Proc. Soc. exp. Biol. Med, 111 (1962), page 544), in which the suppression of writhing movements in the mouse was observed.
# isolated portal vein = assay: Isolated rat's portal vein (Berti), increase in tonus
# Procedure: (2) Isolated rat's portal vein
# The tests on the rat's portal vein, an organ with its own rhythm, were performed according to the method of Berti et al (Arch. int. Pharmacodyn. 184 (1970), page 328). In Table 4, the increase in tonus at various adrenalin concentrations is given in milligrams. As a comparison, the values for the known substance heptaminol (=6-amino-2-methylheptane-2-ol) are also given.
# [5] = test system: permeability of the capillaries; assay: Histamine rash test (modified Halpern), capillary permeability; assay type: in vivo; settings: 30 minutes before histamine
# Procedure: The test according to Halpern (Presse medicale 65 (1949), page 949) was used in modified form. The suppressive effect of the compounds according to the invention on the permeability of the capillaries was tested. The blue coloration induced by intravenous administration of trypan blue at two intracutaneous histamine injection points per animal, (trypan blue administered 2 minutes before the histamine), was estimated according to the following scale of values:
# indications of blue coloration
# clear blue coloration =4
# stong blue coloration =6
# The preceding evaluation was made from the combined effect at the two injection points.
# The test substances were administered i.p. 30 minutes before the histamine injection.
# [6] = 10 μg (first figure where two are given)
# [7] = 30 μg (first figure where two are given)
compound,measurement,setting,value
Cc1cc(C)c(CNCCCC(C)C)c(C)c1 [compound 19],"Relative change in coronary blood flow, second figure after slash",[1]; 10 μg,-15
same,Relative change in coronary blood flow,[1]; [6],+30
same,"Relative change in coronary blood flow, second figure after slash",[1]; 30 μg,-10
same,Relative change in coronary blood flow,[1]; [7],+71
same,LD50,[2]; ip,100 to 250 mg/kg
CCCCCC(C)NCc1cc(C(C)(C)C)ccc1C (stereo not shown) [compound 6],Relative change in coronary blood flow,[1]; [6],+129
same,Relative change in coronary blood flow,[1]; [7],+187
CCCCCC(C)NCc1ccccc1Br (stereo not shown) [compound 12],"Relative change in blood flow, vaso-dilator activity",perfused rabbit ear; 3 × 10^-5 g/ml,+12
same,LD50,[2]; ip,100 to 250 mg/kg
CCCCCC(C)NCc1cccc(Br)c1 (stereo not shown) [compound 11],LD50,[2]; ip,100 to 250 mg/kg
Cc1cc(C)c(CNCCCOC(C)C)c(C)c1 [compound 23],LD50,[2]; ip,100 to 250 mg/kg
CCCCCCCCNCc1c(C)cc(C)cc1C [compound 17],Relative change in coronary blood flow,[1]; [7],+138
same,LD50,[2]; ip,25 to 50 mg/kg
CCCCCC(C)NCc1ccc(F)cc1 (stereo not shown) [compound 7],Suppression of carrageenin oedema in the paw (antiphlogistic activity),[3]; 25 mg/kg p.o.,53%
same,Suppression of carrageenin oedema in the paw (antiphlogistic activity),[3]; 63 mg/kg p.o.,71%
same,"Relative change in blood flow, vaso-dilator activity",perfused rabbit ear; 3 × 10^-5 g/ml,+34
same,LD50,[2]; ip,100 to 250 mg/kg
same,Suppression of writhing movements,[4]; 40 mg/kg p.o.,46%
same,Suppression of writhing movements,[4]; 63 mg/kg p.o.,67%
same,Suppression of writhing movements,[4]; 100 mg/kg p.o.,77%
CCCCCCCNCc1c(C)cc(C)cc1C [compound 16],Relative change in coronary blood flow,[1]; [6],+55
same,Relative change in coronary blood flow,[1]; [7],+61
same,LD50,[2]; ip,50 to 100 mg/kg
CCCCCCOCCCNCc1c(C)cc(C)cc1C [compound 22],Relative change in coronary blood flow,[1]; [7],+109
same,"Relative change in blood flow, vaso-dilator activity",perfused rabbit ear; 3 × 10^-5 g/ml,0
same,"Increase in tonus, isolated rat's portal vein",isolated portal vein; 10^-4 g/ml,+271 milligrams
same,"Increase in tonus, isolated rat's portal vein",isolated portal vein; 10^-5 g/ml,+225 milligrams
same,"Increase in tonus, isolated rat's portal vein",isolated portal vein; 10^-6 g/ml,+65 milligrams
same,Increase in vasotonus compared with heptaminol,isolated portal vein; in words,distinctly stronger increase in vasotonus than the comparison substance heptaminol
same,LD50,[2]; ip,25 to 50 mg/kg
same,"Histamine rash test, blue coloration score (0 = none, 2 = indications, 4 = clear, 6 = strong)",[5]; 1.0 mg/kg i.p.,2.6
same,"Histamine rash test, blue coloration score (0 = none, 2 = indications, 4 = clear, 6 = strong)",[5]; 3.0 mg/kg i.p.,1.3
Cc1cc(C)c(CNC(C)CCCC(C)(C)O)c(C)c1 (stereo not shown) [compound 31],Suppression of carrageenin oedema in the paw (antiphlogistic activity),[3]; 200 mg/kg p.o.,26%
same,"Relative change in blood flow, vaso-dilator activity",perfused rabbit ear; 10^-4 g/ml,+87
same,"Relative change in blood flow, vaso-dilator activity",perfused rabbit ear; 10^-5 g/ml,+41
same,"Relative change in blood flow, vaso-dilator activity",perfused rabbit ear; 10^-6 g/ml,+12
same,LD50,[2]; iv,50 to 100 mg/kg
same,"Histamine rash test, blue coloration score (0 = none, 2 = indications, 4 = clear, 6 = strong)",[5]; 10.0 mg/kg i.p.,2.6
CCCC(C)NCc1c(C)cc(C)cc1C (stereo not shown) [compound 24],LD50,[2]; ip,50 to 100 mg/kg
CCCCCCCCCNCc1c(C)cc(C)cc1C [compound 18],LD50,[2]; ip,50 to 100 mg/kg
"CCCCCC(C)NCc1c(C)cc(C)cc1C (single isomer, unassigned) [compound 3]",Relative change in coronary blood flow,[1]; [6],+14
same,Relative change in coronary blood flow,[1]; [7],+19
same,Relative change in coronary blood flow,[1]; 100 μg (first figure where two are given),+30
same,Suppression of carrageenin oedema in the paw (antiphlogistic activity),[3]; 100 mg/kg p.o.,11%
same,"Relative change in blood flow, vaso-dilator activity",perfused rabbit ear; 3 × 10^-5 g/ml,+38
same,"Relative change in blood flow, vaso-dilator activity",perfused rabbit ear; 10^-5 g/ml,+105
same,"Relative change in blood flow, vaso-dilator activity",perfused rabbit ear; 10^-6 g/ml,+43
same,"Relative change in blood flow, vaso-dilator activity",perfused rabbit ear; 10^-7 g/ml,+3
same,LD50,[2]; ip,50 to 100 mg/kg
same,LD50,[2]; iv,10.8 mg/kg
same,"Histamine rash test, blue coloration score (0 = none, 2 = indications, 4 = clear, 6 = strong)",[5]; 1.0 mg/kg i.p.,2.5
same,"Histamine rash test, blue coloration score (0 = none, 2 = indications, 4 = clear, 6 = strong)",[5]; 3.0 mg/kg i.p.,2.5
CCCCC(C)NCc1c(C)cc(C)cc1C (stereo not shown) [compound 25],"Relative change in blood flow, vaso-dilator activity",perfused rabbit ear; 3 × 10^-6 g/ml,+39
same,"Relative change in blood flow, vaso-dilator activity",perfused rabbit ear; 10^-4 g/ml,+147
same,"Relative change in blood flow, vaso-dilator activity",perfused rabbit ear; 10^-5 g/ml,+93
same,"Relative change in blood flow, vaso-dilator activity",perfused rabbit ear; 10^-6 g/ml,+1
same,"Relative change in blood flow, vaso-dilator activity",perfused rabbit ear; 10^-7 g/ml,+3
same,LD50,[2]; ip,50 to 100 mg/kg
same,Suppression of writhing movements,[4]; 50 mg/kg p.o.,46%
same,"Histamine rash test, blue coloration score (0 = none, 2 = indications, 4 = clear, 6 = strong)",[5]; 3.0 mg/kg i.p.,1.3
same,"Histamine rash test, blue coloration score (0 = none, 2 = indications, 4 = clear, 6 = strong)",[5]; 10.0 mg/kg i.p.,1.4

# — US4312861A, “Pharmaceutical compositions containing N-alkyl-N-(nuclearly-substituted) benzylamines having vasotonia-regulating activity” (Hoechst Aktiengesellschaft, priority 1974, dated 1982)
